{"source": "patent US20030157516A1", "about": "“G protein coupled receptor” (priority 2000, published 2003)", "format_in_all_cases": "cell-based", "key": {"adenine binding GPCR": {"biological_target": "T1, adenine binding GPCR (Rattus norvegicus, UniProt Q7TN49)", "T1 construct": "The full length reading frame was inserted into the mammalian expression vector pcDNA3; expressed in transfected cells; host or cells: HEK293 cells stably transfected with pLEC/Gqi or pLEC/Gqo", "T1 sequence (Q7TN49 1-304)": "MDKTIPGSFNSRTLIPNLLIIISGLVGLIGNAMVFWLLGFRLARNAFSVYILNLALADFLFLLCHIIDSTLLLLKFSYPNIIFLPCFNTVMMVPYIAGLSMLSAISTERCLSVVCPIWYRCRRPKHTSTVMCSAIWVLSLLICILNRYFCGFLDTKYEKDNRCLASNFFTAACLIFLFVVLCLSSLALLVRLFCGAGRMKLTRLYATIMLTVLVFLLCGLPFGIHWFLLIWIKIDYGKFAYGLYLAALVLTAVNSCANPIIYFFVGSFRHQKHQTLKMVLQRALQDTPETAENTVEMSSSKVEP", "assay": "FLIPR Ca2+ transient assay, antagonism of 30 nM adenine challenge", "details": "15 minutes incubation with compound (30 μM to 30 pM), then challenge with 30 nM adenine", "source_text": "The full length reading frame was inserted into the mammalian expression vector pcDNA3 (Invitrogen, Carlsbad, Calif., U.S.A.) and the resulting expression construct was transiently transfected with the FuGENE 6 reagent (Roche Molecular Biochemicals, Mannheim, Germany) into HEK293 cells stably transfected (E. Bender, unpublished) with pLEC/Gqi or pLEC/Gqo (Molecular Devices, Sunnyvale, Calif., U.S.A.). The cells were loaded with Fluo-4 (Molecular Probes, Eugene, Oreg., U.S.A.) according to the recommendations of the supplier.\nAfter a 15 minutes incubation at room temperature, the same cells were challenged with 30 nM adenine, to detect antagonistic properties of molecules added in the first round of superfusion."}, "rat adenine binding GPCR [1]": {"biological_target": "T2, rat adenine binding GPCR (Rattus norvegicus, UniProt Q7TN49)", "T2 sequence (Q7TN49 1-304)": "T1 sequence (Q7TN49 1-304)", "assay": "FLIPR Ca2+ transient assay, agonism, HEK293/Gq chimera cells transiently transfected with rat adenine binding GPCR/pcDNA3", "set-up": "The full length reading frame was inserted into the mammalian expression vector pcDNA3; expressed in transfected cells; host or cells: HEK293 cells stably transfected with pLEC/Gqi or pLEC/Gqo", "source_text": "This assay is based around an instrument called a FLuorescence Imaging Plate Reader ((FLIPR®), Molecular Devices Corporation). In its most common configuration, it excites and measures fluorescence emitted by fluorescein-based dyes. It uses an argon-ion laser to produce high power excitation at 488 nm of a fluorophore, a system of optics to rapidly scan the over the bottom of a 96-/384-well plate and a sensitive, cooled CCD camera to capture the emitted fluorescence. It also contains a 96-/384-well pipetting head allowing the instrument to deliver solutions of test agents into the wells of a 96-/384-well plate. The FLIPR assay is designed to measure fluorescence signals from populations of cells before, during and after addition of compounds, in real time, from all 96-/384-wells simultaneously. […] As described below, calcium transients in cells transfected with adenine binding GPCR were measured using the FLIPR assay in order to measure activation of the receptors by various substrates in order to determine the natural ligand of the receptor.\nThe full length reading frame was inserted into the mammalian expression vector pcDNA3 (Invitrogen, Carlsbad, Calif., U.S.A.) and the resulting expression construct was transiently transfected with the FuGENE 6 reagent (Roche Molecular Biochemicals, Mannheim, Germany) into HEK293 cells stably transfected (E. Bender, unpublished) with pLEC/Gqi or pLEC/Gqo (Molecular Devices, Sunnyvale, Calif., U.S.A.). The cells were loaded with Fluo-4 (Molecular Probes, Eugene, Oreg., U.S.A.) according to the recommendations of the supplier. […]\nUsing the FLIPR assay as above, calcium transients were measured in both sets of cells with the transients attributable to the novel GPCR measured as the difference between the two transients. Results are illustrated in FIG. 4. […]"}, "rat adenine binding GPCR [2]": {"biological_target": "T2, rat adenine binding GPCR", "assay": "Intracellular Ca2+ measurements (FLIPR) on permanently transfected CHO cells, clone 28", "set-up": "The full length reading frame was inserted into the mammalian expression vector pcDNA3; expressed in transfected cells", "protocol": "Finally, measurements of intracellular Ca^2+ were performed on the best functionally coupled CHO cell line, clone 28. The effect of Na-butyrate pre-treatment was investigated using a dose response curve of adenine.\na) Methods—Two days before the experiment the cells were seeded out in a 96 well plate at a density required for approximately 90% cell confluence at the day of the experiment. Compounds were diluted in calcium buffer (5 mM HEPES/NaOH, pH 7.4, 140 mM NaCl, 1 mM MgCl2, 5 mM KCl, 10 mM glucose, 1.25 mM CaCl2, 2.5 mM probenecid, pH 7.4), twice their final concentrations. For basal values, calcium buffer was applied and for the maximum response, 10 μM ionomycin was used. The growth medium was removed and the cells were loaded in serum-free growth medium supplemented with probenecid (5 mM), the indicator Fluo-3 (2 μM), 20 mM HEPES/NaOH, pH, 7.4 and 0.1% BSA in the incubator at 37° C. After 60 minutes incubation, the cells were washed 3 times with the calcium buffer. 100 μl of the diluted compounds was transferred to the wells and changes in intracellular calcium levels were measured with the FLIPR® (Fluorometric Imaging Plate Reader, Molecular Devices). Each data point was run in duplicate and the peak of the Ca ^2+-transient was considered as the relevant signal. The sigmoid concentration response curves were analyzed using the GraphPad Prism program."}, "[3]": {"details": "clone 28, Na-butyrate treated cells"}, "[4]": {"details": "clone 28, non-Na-butyrate treated cells"}}, "data": [{"smiles": "Nc1ncnc2c1ncn2[C@@H]1O[C@H](COP(=O)(O)O)[C@@H](O)[C@H]1O", "note": "[AMP]", "values": [{"measurement": "antagonistic effect", "setting": "adenine binding GPCR", "value": "did not elicit antagonistic effects"}, {"measurement": "agonism of nucleoside and nucleotide derivatives of adenine", "setting": "rat adenine binding GPCR [1]; at high concentrations (>3.3 μM)", "value": "weak partial agonism"}]}, {"smiles": "Nc1ncnc2nc[nH]c12", "note": "[Adenine, adenine]", "values": [{"measurement": "EC50", "setting": "rat adenine binding GPCR [2]; [3]", "value": 0.0148, "unit": "µM"}, {"measurement": "increase in RFU", "setting": "rat adenine binding GPCR [2]; [3]", "value": 3, "unit": "fold"}, {"measurement": "EC50", "setting": "rat adenine binding GPCR [2]; [4]", "value": 0.0724, "unit": "µM"}, {"measurement": "increase of the basal relative fluorescence units (RFU)", "setting": "rat adenine binding GPCR [2]; [4]", "value": 1.25, "unit": "fold"}, {"measurement": "calcium transients (agonistic activity)", "setting": "rat adenine binding GPCR [1]; HEK293/Gaqo cells, 3.3 nM-33 μM, difference to empty-vector cells", "value": "dose responsive calcium transient"}]}]}
